Laboratory results from US11123319B2, “Methods and compositions for treating edema refractory to oral diuretics” (RESQ Pharmaceuticals LLC, priority 2019, dated 2021).
Structures can show the parent of a compound that is named as a salt.

Tests used:
[1] = Serum pharmacokinetics of bumetanide after single intranasal, sublingual or intravenous dose in dogs; conditions: both sexes, beagle, dog, in vivo, 0.5-mg IV dose (Second Replicate), individual animals
Description: The purpose of this study was to assess the pharmacokinetic profiles of various formulations of bumetanide, including arginine bumetanide salts (F69), potassium bumetanide salts (F10), an bumetanide emulsion (FE-9), and a nano-emulsion of bumetanide (FNE-1), which are described in Table 42, when each formulation is administered as a single intranasal dose or as a single sublingual dose in different vehicles when compared to single IV administration dose in male and female beagle dogs.
A total of four dogs were assigned to the study (3 males, 8-12 kg and 1 female, 7-11 kg). Because bumetanide is a diuretic, 30 minutes prior to dosing, the dogs received a 100 mL injection of Lactated Ringer's solution subcutaneously (SQ) for all events. The 100 mL injection was repeated ˜2 hours post-dose.
This study was conducted in 9 Events in two phases (A and B) in the same animals, separated by approximately a 48 hour or more washout period between events in each phase and ˜2 weeks rest period between phases, meaning Phase B events were initiated after ˜2 weeks rest period from completion of Event 5. The dosing regimen for Phase A and Phase B events are described in Table 43 and 44 respectively.
For intranasal administration, each dog was held in an upright position with the nose pointing up. […]

[2] = Solubility of bumetanide (free acid) in water in the presence and absence of surfactant, HPLC; assay type: physicochemical; conditions: 10 mg in 1 mL deionized water, no surfactant
Description: Bumetanide, 10 mg, in its free acid form was added to 1 mL of deionized water and mixed using a vortex and sonicator. The solution was filtered using a 0.22 μm nylon syringe filter. To 900 μL deionized water, 100 μL of the filtered bumetanide solution was added before being characterized for the concentration of the bumetanide in solution using HPLC. The concentration of bumetanide was determined using a standard curve generated by bumetanide solutions of known concentrations. […] Therefore, to the 10 mg of bumetanide, 1 mL of deionized water containing 1.0%, 0.5% or 0.1% of the surfactant tetradecyl-β-D-maltoside. The bumetanide was then solubilized using a vortex and sonicator, after which it was filtered using a 0.22 μm nylon syringe filter. To 900 μL deionized water, 100 μL of the filtered bumetanide solution was added before being characterized for the concentration of the bumetanide in solution using HPLC. The resulting bumetanide concentrations are recorded in Table 1.

[3] = Stability of arginine and potassium bumetanide salt solutions over four weeks at 5 °C or 25 °C; assay type: physicochemical; conditions: for stability in solution (conclusion): at either 5° C. or 25° C.
Description: The stability of the arginine and potassium bumetanide salts was monitored over a four week period with storage at either 2-8° C. or 25° C. for that time period. The bumetanide salt solutions were evaluated on the basis of pH, concentration of bumetanide in solution, the percent assay recovery and the presence of an impurity (see Tables 18 and 19).

[4] = Solubility of bumetanide salts formed in situ with various bases (saturated solution, HPLC); assay type: physicochemical; conditions: deionized water with base added (salt formed in situ), thermodynamic from solid, 20 mg bumetanide in 1 mL deionized water + base, 0.22 μm filtrate, read-out: Calculated conc. (measured solubility of bumetanide salt)
Description: The acid form of bumetanide was weighed out to 20 mg and dissolved in 1 mL of deionized water by mixing with a vortex to form a low-pH solution of bumetanide. To this low pH bumetanide solution, a determined amount of base was added and mixed using a vortex for 2 minutes, to form a solution having a pH suitable for nasal administration. With the increasing pH the bumetanide salt formed in situ precipitated, in part, to form a saturated solution of the resulting salt form. The saturated solution was then filtered through a 0.22 μm filter to remove all precipitated bumetanide salt. The filtrate was collected, and its pH was measured. An aliquot of the saturated solution was assayed for bumetanide by HPLC to determine the maximum concentration achievable for the salt form in water at about neutral pH.
This procedure was repeated for various bases, including arginine, lysine, potassium, sodium, glycine, histidine, and the cationic lipophilic surfactants soy lecithin, distearoyl glycerol-3-phosphatidylamine, L-α-phosphatidylethanolamine and bis(2-ethylhexyl)amine, in order to determine the maximum solubility of each bumetanide salt solution.

Row | Compound | Assay ([3]; 1 week, 5° C.) | pH ([3]; 1 week, 5° C.) | Assay ([3]; 1 week, 25° C.) | pH ([3]; 1 week, 25° C.) | Assay ([3]; 2 weeks, 5° C.) | pH ([3]; 2 weeks, 5° C.) | Assay ([3]; 2 weeks, 25° C.) | pH ([3]; 2 weeks, 25° C.) | Assay ([3]; 4 weeks, 5° C.) | pH ([3]; 4 weeks, 5° C.) | Assay ([3]; 4 weeks, 25° C.) | pH ([3]; 4 weeks, 25° C.) | Assay ([3]; T0) | Osmolality ([3]; T0) | Viscosity ([3]; T0) | pH ([3]; T0) | stability in solution (conclusion) [3] | other results
1 | CCCCNc1cc(C(=O)O)cc(S(N)(=O)=O)c1Oc1ccccc1 [Bumetanide, bumetanide] |  |  |  |  |  |  |  |  |  |  |  |  |  |  |  |  |  | concentration at 45 min [1]: 13.9 ng/mL; solubility of free acid form in water [2]: Nearly no bumetanide in the free acid form was soluble water
2 | CCCCNc1cc(C(=O)O)cc(S(N)(=O)=O)c1Oc1ccccc1.N=C(N)NCCCC(N)C(=O)O [arginine bumetanide salt] | 5.08 mg/mL | 7.0 | 5.06 mg/mL | 7.1 | 4.99 mg/mL | 7.0 | 4.97 mg/mL | 7.0 | 4.89 mg/mL | 7.0 | 4.97 mg/mL | 7.1 | 5.07 mg/mL | 335 mOsm/kg | 1.3 cP | 7.0 | stable for up to four weeks | impurity by HPLC ([3]; initially or after four weeks, 5° C. and 25° C.): no impurity was detected
3 | CCCCNc1cc(C(=O)O)cc(S(N)(=O)=O)c1Oc1ccccc1 [potassium bumetanide salt] | 5.18 mg/mL | 7.0 | 5.10 mg/mL | 7.0 | 4.97 mg/mL | 7.0 | 4.96 mg/mL | 7.1 | 5.00 mg/mL | 7.0 | 5.03 mg/mL | 7.1 | 5.10 mg/mL | 317 mOsm/kg | 1.3 cP | 7.0 | stable for up to four weeks | solubility at 2 min [4]: 20.2 mg/mL
